Each structure is given as a SMILES string. Values after ≈ are worked out from the molar mass of the structure shown.

The text below walks through data of EP0084757A1, “Trisubstituted diaza derivatives” (CIBA-GEIGY AG, priority 1982, dated 1983).

For the test, the system named is mit Crotonöl induzierten Rattenohroedems. The test is described as follows: Inhibition of croton oil-induced rat ear oedema (method of Tonelli and Thibault). In kind it is in vivo, Normalratte. To be noted: inhibition of croton oil-induced ear oedema in the normal rat; local application. The procedure: Diese Eigenschaft lässt sich beispielsweise nach der von G. Tonelli, L. Thibault, Endocrinology 77, 625 (1965) entwickelten Methode durch Hemmung des mit Crotonöl induzierten Rattenohroedems bei der Normalratte im Dosisbereich von etwa 1 bis etwa 100 mg/ml nachweisen.

`COC(Cc1nc(-c2ccccc2)c(-c2cccnc2)[nH]1)OC` [2-[4(5)-Phenyl-5(4)-(3-pyridyl)-imidazol-2-yl]-acetaldehyd-dimethylacetal] displayed an ED50-Wert of 18 mg/mL (≈ 58.2 mM).
